Here are results for two molecules from patent US20080319001A1, “Cancer Treatment Using Specific 3,6,9-Substituted Acridines” (priority 2005, published 2008).

The structures appear in SMILES notation. Where two headings read alike, the source gives them in different places.

Data set [1] in a line: Cytotoxicity / growth inhibition, DU145. It counts as cell-based. The note with it: human, DU145 cells; read-out: Cytotoxic IC50 vs. DU145.
The nature of data set [2]: Metabolic stability, HLM. The data set is classed as in vitro ADME, human.
Data set [3] can be described thus: Cytotoxicity / growth inhibition, A549. The data set is classed as cell-based. Particulars: human, A549 cells; read-out: Cytotoxic IC50 vs. A549.
The subject of data set [4] is G-quadruplex DNA (F21T oligonucleotide). Put plainly: FRET DNA melting assay. The note with it: [conc]ΔTm=20 value. It counts as binding. As for the experimental part: The ability of the compounds to stabilise G-quadruplex DNA was investigated using a fluorescence resonance energy transfer (FRET) assay modified to be used as a high-throughput screen in a 96-well format. The labelled oligonucleotide F21T (5′-FAM-dGGG(TTAGGG)-3-TAMRA-3′) used as the FRET probe was diluted from stock to the correct concentration (400 nM) in a 50 mM potassium cacodylate buffer (pH 7.4) and then annealed by heating to 85° C. for 10 min., followed by cooling to room temperature in the heating block.
Compounds were stored as 10 mM stock solutions in DMSO; final solutions (at 2× concentration) were prepared using water or 1M HCl in the initial 1:10 dilution, after which 50 mM potassium cacodylate buffer (pH 7.4) was used in all subsequent steps. 96-well plates (MJ Research, Waltham, Mass.) were prepared by aliquoting 50 μl of the annealed DNA to each well, followed by […] of the compound solutions. Measurements were made on a DNA Engine Opticon (MJ Research) with excitation at 450-495 nm and detection at 515-545 nm. Fluorescence readings were taken at intervals of 0.5° C. over the range 30-100° C., with a constant temperature being maintained for 30 seconds prior to each reading to ensure a stable value. Final analysis of the data was carried out using a script written in the program Origin 7.0 (OriginLab Corp., Northampton, Mass.). […]

The nature of data set [5]: Log P (summary of biological and physicochemical properties, Table 4).
Data set [6] can be described thus: LogP/D measurement (octanol/ISA water titration). The data set is classed as physicochemical. Particulars: for logD / logP: octanol/ISA (ionic strength adjusted) water; for logP / Measured LogPion: octanol/ISA water; for logP: read-out: Measured LogP. As for the experimental part: The LogP values were measured by titration of solutions of the compound in Octanol/ISA (ionic strength adjusted) water mixtures on a Sirius GipKa instrument. Titrations in different ratios of Octanol to water enabled the calculation of the Log Pion values and therefore the LogD profile. Prediction of LogP values were made using ACD v8.07 and Syracuse KNOWWIN v1.67 software.

The subject of data set [7] is telomerase (extracts from A2780 human ovarian carcinoma cells). Put plainly: Modified telomeric repeat amplification protocol (TRAP) assay, cell-free. The data set is classed as biochemical. As for the experimental part:
The ability of compounds to inhibit telomerase in a cell-free assay was assessed with a modified TRAP assay using extracts from exponentially growing A2780 human ovarian carcinoma cells. The TRAP assay was performed in 2 steps: • (a) telomerase-mediated extension of the forward primer (TS: 5′-AATCCGTCGAGCAGAGTT, Oswel Ltd., Southampton, UK) contained in a 40 μL reaction mix comprising TRAP buffer (20 mM Tris-HCl (pH 8.3), 68 mM KCl, 1.5 mM MgCl2, 1 mM EGTA, 0.05% v/v Tween 20), 0.05 μg bovine serum albumin, 50 μM of each deoxynucleotide triphosphate, 0.1 μg TS primer, and 3 μCi of [α-P]dCTP (Amersham plc, UK)Protein (40 ng or 20 ng) was then incubated with the reaction mix and agent (acid addition and quaternary dimethiodide salts) at final concentrations of up to 50 μM for 20 min at 25° C. A lysis buffer (no protein) control, heat-inactivated protein control, and 50% protein (20 ng or 10 ng) control were included in each assay; and • (b) while heating at 80° C. in a PCR block of a thermal cycler (Hybaid, UK) for 5 min to inactivate telomerase activity, 0.1 μg of reverse CX primer (3′-[…]-5′) and 2 Units of Taq DNA polymerase (“red hot”, Advanced Biotechnologies) were added. A 3-step PCR was then performed: 94° C. for 30 s, 50° C. for 30 s, and 72° C. for 1 min for 31 cycles. Telomerase-extended PCR products in the presence or absence of compounds were then determined either by electrophoretic separation using 8% w/w acrylamide denaturing gels and analysis by phosphorimaging or autoradiography, or by harvesting on Whatman filters (25 mm glass microfibre) and analysis by liquid scintillation counting.

Data set [8] deals with tumour cell line. Particulars: Incles et al, 2004; cited from earlier work.
The mark [9] stands for this setting: pH 6, read-out: Measured LogD pH 6.
Setting [10] is: pH 6.5, read-out: Measured LogD pH 6.5.
[11] abbreviates: pH 7.4, read-out: Measured LogD pH 7.4.
The mark [12] stands for this setting: Table 3, unit inferred, read-out: TRAP EC50.
Where [13] appears, read: Table 4, read-out: Telomerase EC50.

By IC50 is commonly meant the concentration at which inhibition is half-maximal. What is called logP is the decadic logarithm of the partition coefficient of the neutral form, usually between octanol and water. In general, logD refers to lipophilicity at a set pH, counting ionised and neutral species. A word on the EC50: it is the midpoint of the concentration-response curve. With `CN(C)c1ccc(Nc2c3ccc(NC(=O)CCN4CCCC4)cc3nc3cc(NC(=O)CCN4CCCC4)ccc23)cc1` [BSG01], the IC50 at 96 h turned out to be 2300 nM in data set [1] and 2420 nM in data set [3]. Further, in data set [2], the “HLM (t = 45)” value is on record as 6.1. Further, in data set [2], the “HLM (t = 90)” value is on record as 11.2. Moreover, in data set [4], the FRET was found to be 0.72 µM. Moreover, the log partition coefficient (logP) in data set [5] turned out to be 1.4; in data set [6], 5.02. Also, the log distribution coefficient (logD) was -2.56 in data set [6] (setting [9]), -1.47 in data set [6] (setting [10]) and 0.74 in data set [6] (setting [11]). Moreover, the “Measured LogPion” value in data set [6] was found to be 2.62. Moreover, the EC50 in data set [7] (setting [12]) and in data set [7] (setting [13]) was 115 nM throughout. In addition, the “end-to-end fusions in chromosomes” value in data set [8] is “cause end-to-end fusions in chromosomes”.
For the molecule `O=C(CCN1CCCC1)Nc1ccc2c(NCc3ccc(F)c(F)c3)c3ccc(NC(=O)CCN4CCCC4)cc3nc2c1` [BSG17, N-(9-(3,4-Difluoro-benzylamino)-6-(3-pyrolidin-1-yl-propionamide)-acridin-3-yl)-3-pyrrolidin-1-yl-propionamide], the IC50 at 96 h in data set [1] was 9750 nM; in data set [3], 2120 nM. Moreover, the “HLM (t = 45)” value in data set [2] is 3.1. For the same molecule, the “HLM (t = 90)” value in data set [2] amounted to 12.4. In data set [4], this molecule returned an FRET of 0.46 µM. For the same molecule, the logP in data set [5] came to 1.59; in data set [6], 5.54. In addition, the values for the logD in data set [6] (setting [9]), in data set [6] (setting [10]) and in data set [6] (setting [11]) were -0.15, 0.38 and 1.58, respectively. In addition, the “Measured LogPion” value in data set [6] amounted to 3.75. The EC50 worked out at 32 nM in data set [7] (setting [12]) and 162 nM in data set [7] (setting [13]).
